The source made the active and inactive calls. No rule for the calls is given here.
Test system: CCRIS mutagenicity, Ames/micronucleus/aberration tests
Experiment: CCRIS mutagenicity studies
[1] = Test System: AMES SALMONELLA TYPHIMURIUM, Strain/Indicator: TA98, Metabolic Activation: NONE, Method: PREINCUBATION
[2] = Test System: AMES SALMONELLA TYPHIMURIUM, Strain/Indicator: TA98, Metabolic Activation: NONE, Method: STANDARD PLATE
[3] = Test System: AMES SALMONELLA TYPHIMURIUM, Strain/Indicator: TA100, Metabolic Activation: NONE, Method: STANDARD PLATE
[4] = Test System: AMES SALMONELLA TYPHIMURIUM, Strain/Indicator: TA1535, Metabolic Activation: NONE, Method: STANDARD PLATE
[5] = Test System: AMES SALMONELLA TYPHIMURIUM, Strain/Indicator: TA1537, Metabolic Activation: NONE, Method: STANDARD PLATE
[6] = Test System: E. COLI, Strain/Indicator: WP2 UVRA, Metabolic Activation: NONE, Method: STANDARD PLATE

With CC(=O)/C(C)=N/O the mutagenic call (Test System: AMES SALMONELLA TYPHIMURIUM, Strain/Indicator: TA98, Metabolic Activation: HAMSTER, LIVER, S-9, AROCLOR 1254 (10%), Method: PREINCUBATION) was “inactive; negative”, the mutagenic call [1] was “inactive; negative” and the mutagenic call (Test System: AMES SALMONELLA TYPHIMURIUM, Strain/Indicator: TA98, Metabolic Activation: RAT, LIVER, S-9, AROCLOR 1254 (10%), Method: PREINCUBATION) was “inactive; negative”. For the same compound, the mutagenic call (Test System: AMES SALMONELLA TYPHIMURIUM, Strain/Indicator: TA100, Metabolic Activation: HAMSTER, LIVER, S-9, AROCLOR 1254 (10%), Method: PREINCUBATION) was “inactive; negative”, the mutagenic call (Test System: AMES SALMONELLA TYPHIMURIUM, Strain/Indicator: TA100, Metabolic Activation: NONE, Method: PREINCUBATION) was “inactive; negative” and the mutagenic call (Test System: AMES SALMONELLA TYPHIMURIUM, Strain/Indicator: TA100, Metabolic Activation: RAT, LIVER, S-9, AROCLOR 1254 (10%), Method: PREINCUBATION) was “inactive; negative”. The mutagenic call (Test System: AMES SALMONELLA TYPHIMURIUM, Strain/Indicator: TA1535, Metabolic Activation: HAMSTER, LIVER, S-9, AROCLOR 1254 (10%), Method: PREINCUBATION) was “inactive; negative”, the mutagenic call (Test System: AMES SALMONELLA TYPHIMURIUM, Strain/Indicator: TA1535, Metabolic Activation: NONE, Method: PREINCUBATION) was “inactive; negative” and the mutagenic call (Test System: AMES SALMONELLA TYPHIMURIUM, Strain/Indicator: TA1535, Metabolic Activation: RAT, LIVER, S-9, AROCLOR 1254 (10%), Method: PREINCUBATION) was “inactive; negative”. For the same compound, the mutagenic call (Test System: AMES SALMONELLA TYPHIMURIUM, Strain/Indicator: TA1537, Metabolic Activation: HAMSTER, LIVER, S-9, AROCLOR 1254 (10%), Method: PREINCUBATION) was “inactive; negative”, the mutagenic call (Test System: AMES SALMONELLA TYPHIMURIUM, Strain/Indicator: TA1537, Metabolic Activation: NONE, Method: PREINCUBATION) was “inactive; negative” and the mutagenic call (Test System: AMES SALMONELLA TYPHIMURIUM, Strain/Indicator: TA1537, Metabolic Activation: RAT, LIVER, S-9, AROCLOR 1254 (10%), Method: PREINCUBATION) was “inactive; negative”.

Cc1ccc2cccc([N+](=O)[O-])c2c1 was tested, and the mutagenic call [1] was “active; positive”.

In the case of CCc1cc(O)cc2c3c([nH]c12)C(CC)(CC(=O)O)OCC3 (configuration not stated), the mutagenic call [2] is reported as “active; positive”, the mutagenic call (Test System: AMES SALMONELLA TYPHIMURIUM, Strain/Indicator: TA98, Metabolic Activation: RAT, LIVER, S-9 (10 OR 50 µL/PLATE), Method: STANDARD PLATE) is reported as “inactive; negative” and the mutagenic call [3] is reported as “inactive; negative”. The mutagenic call (Test System: AMES SALMONELLA TYPHIMURIUM, Strain/Indicator: TA100, Metabolic Activation: RAT, LIVER, S-9 (10 OR 50 µL/PLATE), Method: STANDARD PLATE) was “inactive; negative”, the mutagenic call [4] was “inactive; negative” and the mutagenic call (Test System: AMES SALMONELLA TYPHIMURIUM, Strain/Indicator: TA1535, Metabolic Activation: RAT, LIVER, S-9 (10 OR 50 µL/PLATE), Method: STANDARD PLATE) was “inactive; negative”. For the same compound, the mutagenic call [5] was “inactive; negative”, the mutagenic call (Test System: AMES SALMONELLA TYPHIMURIUM, Strain/Indicator: TA1537, Metabolic Activation: RAT, LIVER, S-9 (10 OR 50 µL/PLATE), Method: STANDARD PLATE) was “inactive; negative” and the mutagenic call [6] was “inactive; negative”. The mutagenic call (Test System: E. COLI, Strain/Indicator: WP2 UVRA, Metabolic Activation: RAT, LIVER, S-9 (10 OR 50 µL/PLATE), Method: STANDARD PLATE) was “inactive; negative”.

With O=[N+]([O-])O.O=[N+]([O-])O.[Cd+2] the mutagenic call (Test System: E. COLI, Strain/Indicator: DG1153, Metabolic Activation: NONE, Method: FLUCTUATION TEST) was “active; positive”.

With CCc1cccc2c(CCO)c[nH]c12 the mutagenic call [2] was “inactive; negative”, the mutagenic call (Test System: AMES SALMONELLA TYPHIMURIUM, Strain/Indicator: TA98, Metabolic Activation: RAT, LIVER, S-9, Method: STANDARD PLATE) was “inactive; negative” and the mutagenic call [3] was “inactive; negative”. For the same compound, the mutagenic call (Test System: AMES SALMONELLA TYPHIMURIUM, Strain/Indicator: TA100, Metabolic Activation: RAT, LIVER, S-9, Method: STANDARD PLATE) was “inactive; negative”, the mutagenic call [4] was “inactive; negative” and the mutagenic call (Test System: AMES SALMONELLA TYPHIMURIUM, Strain/Indicator: TA1535, Metabolic Activation: RAT, LIVER, S-9, Method: STANDARD PLATE) was “inactive; negative”. For the same compound, the mutagenic call [5] was “inactive; negative”, the mutagenic call (Test System: AMES SALMONELLA TYPHIMURIUM, Strain/Indicator: TA1537, Metabolic Activation: RAT, LIVER, S-9, Method: STANDARD PLATE) was “inactive; negative” and the mutagenic call [6] was “inactive; negative”. The mutagenic call (Test System: E. COLI, Strain/Indicator: WP2 UVRA, Metabolic Activation: RAT, LIVER, S-9, Method: STANDARD PLATE) was “inactive; negative”.

With C#CCO the mutagenic call (End Point: In vivo micronucleus, Test System: Normochromatic erythrocytes, Species: Mouse, Strain/Sex: B6C3F1/Male) was “inactive; negative”, the mutagenic call (End Point: In vivo micronucleus, Test System: Normochromatic erythrocytes, Species: Mouse, Strain/Sex: B6C3F1/female) was “inactive; negative. in females, statistically significant trend test but no individual gro” and the mutagenic call (Test System: AMES SALMONELLA TYPHIMURIUM, Strain/Indicator: TA97, Metabolic Activation: NONE) was “inactive; negative”. The mutagenic call (Test System: AMES SALMONELLA TYPHIMURIUM, Strain/Indicator: TA97, Metabolic Activation: RAT, LIVER, S-9, AROCLOR 1254) was “inactive; negative”, the mutagenic call (Test System: AMES SALMONELLA TYPHIMURIUM, Strain/Indicator: TA98, Metabolic Activation: NONE) was “inactive; negative” and the mutagenic call (Test System: AMES SALMONELLA TYPHIMURIUM, Strain/Indicator: TA98, Metabolic Activation: RAT, LIVER, S-9, AROCLOR 1254) was “inactive; negative”. For the same compound, the mutagenic call (Test System: AMES SALMONELLA TYPHIMURIUM, Strain/Indicator: TA100, Metabolic Activation: NONE) was “inactive; negative”, the mutagenic call (Test System: AMES SALMONELLA TYPHIMURIUM, Strain/Indicator: TA100, Metabolic Activation: RAT, LIVER, S-9, AROCLOR 1254) was “inactive; negative” and the mutagenic call (Test System: AMES SALMONELLA TYPHIMURIUM, Strain/Indicator: TA102, Metabolic Activation: NONE) was “inactive; negative”. The mutagenic call (Test System: AMES SALMONELLA TYPHIMURIUM, Strain/Indicator: TA102, Metabolic Activation: RAT, LIVER, S-9, AROCLOR 1254) was “inactive; negative”, the mutagenic call (Test System: Ames Salmonella typhimurium, Strain/Indicator: TA98, Metabolic Activation: Hamster, Liver, S9, Aroclor 1254 (30%), Method: Preincubation) was “inactive; negative. authors judged results as equivocal” and the mutagenic call (Test System: Ames Salmonella typhimurium, Strain/Indicator: TA98, Metabolic Activation: Rat, Liver, S9, Aroclor 1254 (30%), Method: Preincubation) was “inactive; negative. precipitate at highest dose”. For the same compound, the mutagenic call (Test System: Ames Salmonella typhimurium, Strain/Indicator: TA100, Metabolic Activation: Hamster, Liver, S9, Aroclor 1254 (30%), Method: Preincubation) was “inactive; negative”, the mutagenic call (Test System: Ames Salmonella typhimurium, Strain/Indicator: TA100, Metabolic Activation: Rat, Liver, S9, Aroclor 1254 (30%), Method: Preincubation) was “inactive; negative” and the mutagenic call (Test System: Ames Salmonella typhimurium, Strain/Indicator: TA1535, Metabolic Activation: None, Method: Preincubation) was “inactive; negative”.

For CN(C)CCNC(=O)c1cccc2c1Nc1ccccc1O2, the mutagenic call [5] was “active; positive”.

With COc1ccc2c(c1)[C@@H]1CCCC[C@H]1C=C2 the mutagenic call (Test System: AMES SALMONELLA TYPHIMURIUM, Strain/Indicator: TA98, Metabolic Activation: RAT, LIVER, S-9, SODIUM PHENOBARBITAL AND BETA-NAPHTHOFLAVONE, Method: STANDARD PLATE) was “active; positive” and the mutagenic call (Test System: AMES SALMONELLA TYPHIMURIUM, Strain/Indicator: TA100, Metabolic Activation: RAT, LIVER, S-9, SODIUM PHEOBARBITAL AND BETA-NAPHTHOFLAVONE, Method: STANDARD PLATE) was “active; positive”.
